Assays:
Type in all cases: in vivo
[1] = tested on: barnyardgrass (Echinochloa crus-galli); assay: Test G Post-Emergence Protocol; conditions: Echinochloa crus-galli, post-emergence, 312 h; for pest or weed control at 15.625 g/ha: 15.625 g ai/ha, evaluated after 13 days (100=total damage to plant; 0=no damage to plant), read-out: Barnyardgrass damage rating; for pest or weed control at 62.5 g/ha: 62.5 g ai/ha, read-out: Barnyardgrass damage rating (100=total damage to plant; 0=no damage to plant); for pest or weed control at 62.5 g/ha / pest or weed control at 250 g/ha: evaluated after 13 days; for pest or weed control at 250 g/ha: 250 g ai/ha, read-out: damage to plant, Barnyardgrass (100=total damage to plant; 0=no damage to plant)
In short: (§1)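 Values are percent visual injury at 13 days after treatment (0 none, 100 total). Treatment was a post-emergence spray at 15.625, 62.5 or 250 g/ha on 8-day-old pot plants kept at 24/16 °C.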

[2] = tested on: ivy-leaved morning glory (Ipomoea hederacea); assay: Test G Post-Emergence Protocol; conditions: Ipomoea, post-emergence, 312 h; for pest or weed control at 15.625 g/ha: 15.625 g ai/ha, evaluated after 13 days (100=total damage to plant; 0=no damage to plant), read-out: Morningglory, Ivy-leaved damage rating; for pest or weed control at 62.5 g/ha: 62.5 g ai/ha, read-out: Morningglory, Ivy-leaved damage rating (100=total damage to plant; 0=no damage to plant); for pest or weed control at 62.5 g/ha / pest or weed control at 250 g/ha: evaluated after 13 days; for pest or weed control at 250 g/ha: 250 g ai/ha, read-out: damage to plant, Morningglory, Ivy-leaved (100=total damage to plant; 0=no damage to plant)
In short: as §1

corn (Zea mays) [3] = assay: Test G Post-Emergence Protocol; conditions: Zea mays, post-emergence, 312 h; for plant injury at 15.625 g/ha: 15.625 g ai/ha, evaluated after 13 days (100=total damage to plant; 0=no damage to plant), read-out: Corn damage rating; for plant injury at 62.5 g/ha: 62.5 g ai/ha, read-out: Corn damage rating (100=total damage to plant; 0=no damage to plant); for plant injury at 62.5 g/ha / plant injury at 250 g/ha: evaluated after 13 days; for plant injury at 250 g/ha: 250 g ai/ha, read-out: damage to plant, Corn (100=total damage to plant; 0=no damage to plant)
In short: as §1

[4] = tested on: redroot pigweed (Amaranthus retroflexus); assay: Test G Post-Emergence Protocol; conditions: Amaranthus retroflexus, post-emergence, 312 h; for pest or weed control at 15.625 g/ha: 15.625 g ai/ha, evaluated after 13 days (100=total damage to plant; 0=no damage to plant), read-out: Pigweed, Redroot damage rating; for pest or weed control at 62.5 g/ha: 62.5 g ai/ha, read-out: Pigweed, Redroot damage rating (100=total damage to plant; 0=no damage to plant); for pest or weed control at 62.5 g/ha / pest or weed control at 250 g/ha: evaluated after 13 days; for pest or weed control at 250 g/ha: 250 g ai/ha, read-out: damage to plant, Pigweed, Redroot (100=total damage to plant; 0=no damage to plant)
In short: as §1

[5] = tested on: giant foxtail (Setaria faberi); assay: Test G Post-Emergence Protocol; conditions: Setaria faberi, post-emergence, 312 h; for pest or weed control at 15.625 g/ha: 15.625 g ai/ha, evaluated after 13 days (100=total damage to plant; 0=no damage to plant), read-out: Foxtail, Giant damage rating; for pest or weed control at 62.5 g/ha: 62.5 g ai/ha, read-out: Foxtail, Giant damage rating (100=total damage to plant; 0=no damage to plant); for pest or weed control at 62.5 g/ha / pest or weed control at 250 g/ha: evaluated after 13 days; for pest or weed control at 250 g/ha: 250 g ai/ha, read-out: damage to plant, Foxtail, Giant (100=total damage to plant; 0=no damage to plant)
In short: as §1

[6] = tested on: velvetleaf (Abutilon theophrasti); assay: Test G Post-Emergence Protocol; conditions: Abutilon theophrasti, post-emergence, 312 h; for pest or weed control at 15.625 g/ha: 15.625 g ai/ha, evaluated after 13 days (100=total damage to plant; 0=no damage to plant), read-out: Velvetleaf damage rating; for pest or weed control at 62.5 g/ha: 62.5 g ai/ha, read-out: Velvetleaf damage rating (100=total damage to plant; 0=no damage to plant); for pest or weed control at 62.5 g/ha / pest or weed control at 250 g/ha: evaluated after 13 days; for pest or weed control at 250 g/ha: 250 g ai/ha, read-out: damage to plant, Velvetleaf (100=total damage to plant; 0=no damage to plant)
In short: as §1

[7] = tested on: barnyardgrass (Echinochloa crus-galli); assay: Test G Pre-Emergence Protocol; conditions: Echinochloa crus-galli, pre-emergence, 312 h, evaluated after 13 days; for pest or weed control at 15.625 g/ha: 15.625 g ai/ha, read-out: Barnyard grass damage rating (100=total damage to plant; 0=no damage to plant); for pest or weed control at 62.5 g/ha: 62.5 g ai/ha, 100=total damage to plant, 0=no damage to plant, read-out: plant damage rating, Barnyardgrass; for pest or weed control at 250 g/ha: 250 g ai/ha, read-out: Barnyardgrass damage rating (100=total damage to plant; 0=no damage to plant)
In short: (§2)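 Seeds were sown in standard soil and kept one day in a glasshouse (24/16° C day/night, 14 h light, 65% humidity), then sprayed with compound in acetone/water (50:50) containing 0.5% Tween 20 at 15.625, 62.5 or 250 g/ha. Damage was scored after 13 days (0 = none, 100 = total).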

[8] = tested on: ivy-leaved morning glory (Ipomoea hederacea); assay: Test G Pre-Emergence Protocol; conditions: Ipomoea, pre-emergence, 312 h, evaluated after 13 days; for pest or weed control at 15.625 g/ha: 15.625 g ai/ha, read-out: Morning-glory, Ivy-leaved damage rating (100=total damage to plant; 0=no damage to plant); for pest or weed control at 62.5 g/ha: 62.5 g ai/ha, 100=total damage to plant, 0=no damage to plant, read-out: plant damage rating, Morningglory, Ivy-leaved; for pest or weed control at 250 g/ha: 250 g ai/ha, read-out: Morningglory, Ivy-leaved damage rating (100=total damage to plant; 0=no damage to plant)
In short: as §2

corn (Zea mays) [9] = assay: Test G Pre-Emergence Protocol; conditions: Zea mays, pre-emergence, 312 h, evaluated after 13 days; for plant injury at 15.625 g/ha: 15.625 g ai/ha; for plant injury at 15.625 g/ha / plant injury at 250 g/ha: read-out: Corn damage rating (100=total damage to plant; 0=no damage to plant); for plant injury at 62.5 g/ha: 62.5 g ai/ha, 100=total damage to plant, 0=no damage to plant, read-out: plant damage rating, Corn; for plant injury at 250 g/ha: 250 g ai/ha
In short: as §2

[10] = tested on: redroot pigweed (Amaranthus retroflexus); assay: Test G Pre-Emergence Protocol; conditions: Amaranthus retroflexus, pre-emergence, 312 h, evaluated after 13 days; for pest or weed control at 15.625 g/ha: 15.625 g ai/ha; for pest or weed control at 15.625 g/ha / pest or weed control at 250 g/ha: read-out: Pigweed, Redroot damage rating (100=total damage to plant; 0=no damage to plant); for pest or weed control at 62.5 g/ha: 62.5 g ai/ha, 100=total damage to plant, 0=no damage to plant, read-out: plant damage rating, Pigweed, Redroot; for pest or weed control at 250 g/ha: 250 g ai/ha
In short: as §2

[11] = tested on: giant foxtail (Setaria faberi); assay: Test G Pre-Emergence Protocol; conditions: Setaria faberi, pre-emergence, 312 h, evaluated after 13 days; for pest or weed control at 15.625 g/ha: 15.625 g ai/ha; for pest or weed control at 15.625 g/ha / pest or weed control at 250 g/ha: read-out: Foxtail, Giant damage rating (100=total damage to plant; 0=no damage to plant); for pest or weed control at 62.5 g/ha: 62.5 g ai/ha, 100=total damage to plant, 0=no damage to plant, read-out: plant damage rating, Foxtail, Giant; for pest or weed control at 250 g/ha: 250 g ai/ha
In short: as §2

[12] = tested on: velvetleaf (Abutilon theophrasti); assay: Test G Pre-Emergence Protocol; conditions: Abutilon theophrasti, pre-emergence, 312 h, evaluated after 13 days; for pest or weed control at 15.625 g/ha: 15.625 g ai/ha; for pest or weed control at 15.625 g/ha / pest or weed control at 250 g/ha: read-out: Velvetleaf damage rating (100=total damage to plant; 0=no damage to plant); for pest or weed control at 62.5 g/ha: 62.5 g ai/ha, 100=total damage to plant, 0=no damage to plant, read-out: plant damage rating, Velvetleaf; for pest or weed control at 250 g/ha: 250 g ai/ha
In short: as §2

| Compound | pest or weed control at 15.625 g/ha [1] [%] | pest or weed control at 62.5 g/ha [1] [%] | pest or weed control at 250 g/ha [1] [%] | pest or weed control at 15.625 g/ha [2] [%] | pest or weed control at 62.5 g/ha [2] [%] | pest or weed control at 250 g/ha [2] [%] | plant injury at 15.625 g/ha (corn (Zea mays) [3]) [%] | plant injury at 62.5 g/ha (corn (Zea mays) [3]) [%] | plant injury at 250 g/ha (corn (Zea mays) [3]) [%] | pest or weed control at 15.625 g/ha [4] [%] | pest or weed control at 62.5 g/ha [4] [%] | pest or weed control at 250 g/ha [4] [%] | pest or weed control at 15.625 g/ha [5] [%] | pest or weed control at 62.5 g/ha [5] [%] | pest or weed control at 250 g/ha [5] [%] | pest or weed control at 15.625 g/ha [6] [%] | pest or weed control at 62.5 g/ha [6] [%] | pest or weed control at 250 g/ha [6] [%] | pest or weed control at 15.625 g/ha [7] [%] | pest or weed control at 62.5 g/ha [7] [%] | further results |
| --- | --- | --- | --- | --- | --- | --- | --- | --- | --- | --- | --- | --- | --- | --- | --- | --- | --- | --- | --- | --- | --- |
| CCc1nc(NC(=O)[C@@H]2C(=O)N(C)C[C@H]2c2ccc(C(F)(F)F)cc2)n[nH]1 (racemic) [Compound 1610] | 0 | 0 | 0 | 0 | 0 | 0 | 0 | 0 | 0 | 0 | 0 | 0 | 0 | 0 | 0 | 0 | 0 | 0 | 0 | 0 | pest or weed control at 250 g/ha [7]: 0%; pest or weed control at 15.625 g/ha [8]: 0%; pest or weed control at 62.5 g/ha [8]: 0%; pest or weed control at 250 g/ha [8]: 0%; plant injury at 15.625 g/ha (corn (Zea mays) [9]): 0%; plant injury at 62.5 g/ha (corn (Zea mays) [9]): 0%; plant injury at 250 g/ha (corn (Zea mays) [9]): 0%; pest or weed control at 15.625 g/ha [10]: 0%; pest or weed control at 62.5 g/ha [10]: 0%; pest or weed control at 250 g/ha [10]: 0%; pest or weed control at 15.625 g/ha [11]: 0%; pest or weed control at 62.5 g/ha [11]: 0%; pest or weed control at 250 g/ha [11]: 0%; pest or weed control at 15.625 g/ha [12]: 0%; pest or weed control at 62.5 g/ha [12]: 0%; pest or weed control at 250 g/ha [12]: 0% |
| CN1C[C@@H](c2ccc(C(F)(F)F)cc2)[C@H](C(=O)Nc2ccc(F)cc2C(F)(F)F)C1=O (racemic) [Compound 1616] | 10 | 10 | 60 | 0 | 10 | 20 | 0 | 0 | 0 | 20 | 50 | 60 | 40 | 20 | 80 | 10 | 0 | 30 | 0 | 0 | pest or weed control at 250 g/ha [7]: 60%; pest or weed control at 15.625 g/ha [8]: 0%; pest or weed control at 62.5 g/ha [8]: 0%; pest or weed control at 250 g/ha [8]: 20%; plant injury at 15.625 g/ha (corn (Zea mays) [9]): 0%; plant injury at 62.5 g/ha (corn (Zea mays) [9]): 0%; plant injury at 250 g/ha (corn (Zea mays) [9]): 0%; pest or weed control at 15.625 g/ha [10]: 0%; pest or weed control at 62.5 g/ha [10]: 20%; pest or weed control at 250 g/ha [10]: 60%; pest or weed control at 15.625 g/ha [11]: 0%; pest or weed control at 62.5 g/ha [11]: 80%; pest or weed control at 250 g/ha [11]: 90%; pest or weed control at 15.625 g/ha [12]: 0%; pest or weed control at 62.5 g/ha [12]: 0%; pest or weed control at 250 g/ha [12]: 50% |
| Cc1cccc(NC(=O)[C@@H]2C(=O)N(C)C[C@H]2c2ccc(C(F)(F)F)cc2)c1Br (racemic) [Compound 1617] | 0 | 0 | 60 | 0 | 0 | 0 | 0 | 0 | 0 | 0 | 0 | 0 | 20 | 40 | 70 | 0 | 0 | 0 | 10 | 30 | pest or weed control at 250 g/ha [7]: 80%; pest or weed control at 15.625 g/ha [8]: 0%; pest or weed control at 62.5 g/ha [8]: 0%; pest or weed control at 250 g/ha [8]: 0%; plant injury at 15.625 g/ha (corn (Zea mays) [9]): 0%; plant injury at 62.5 g/ha (corn (Zea mays) [9]): 0%; plant injury at 250 g/ha (corn (Zea mays) [9]): 0%; pest or weed control at 15.625 g/ha [10]: 0%; pest or weed control at 62.5 g/ha [10]: 10%; pest or weed control at 250 g/ha [10]: 20%; pest or weed control at 15.625 g/ha [11]: 20%; pest or weed control at 62.5 g/ha [11]: 80%; pest or weed control at 250 g/ha [11]: 90%; pest or weed control at 15.625 g/ha [12]: 0%; pest or weed control at 62.5 g/ha [12]: 0%; pest or weed control at 250 g/ha [12]: 10% |

From patent publication US12077503B2, “Substituted cyclic amides and their use as herbicides” (FMC CORPORATION, priority 2015, dated 2024)
